Legend:
A431 cells = test: IC50 on A431 cells (xCelligence RTCA cell index); format: cell-based; conditions: Homo sapiens, A-431
Source text: A431 cells are characterized by a high inducibility of transcription factors STAT3 and STAT5. In turn, phaeosphaeride A and its derivatives are probably inhibitors of the STAT3 gene. Therefore, the A431 cell line was chosen as a model for searching for possible targets for the action of phaeosphaeride A derivatives. Table 7 presents IC50 data for phaeosphaeride A derivatives on A431 cells.
(§1) The effect of various concentrations of PPA derivatives on the cell culture was studied using xCelligence RTCA equipment (AceaBioscience, San Diego, CA, USA). The concentration closest to the IC50 (10 μM) was chosen as the experimental concentration. The selected concentration of phaeosphaeride A derivatives allows for the assessment of the early effect of compounds on cells and compares their effectiveness. In this experiment, the signaling pathways Akt (pSer473), p70S6K (pThr412), NFkB (p65-pSer536), and CREB (pSer133) were not activated (Table 8). The stress-activated signaling pathways ERK/MAP kinase 1/2 (pThr185/pTyr187), JNK (pThr183/pTyr185), and p38 (pThr180/pTyr182) were activated for these compounds.
To determine the integral cellular response using the xCelligence RTCA equipment (AceaBioscience, Santa Clara, CA, USA), 20 thousand cells were inoculated into a well of a specialized plate allowing the determination of the cell index in real time and cultured in complete growth medium. The next day after the seeding, the medium was replaced with an experimental one (compounds at concentrations of […]). The cell index was monitored for 3 days after the addition of the xenobiotic. The concentration closest to the IC50 (10 μM) was chosen as the experimental concentration.

HBL-100 = test: MTT cytotoxicity, sensitive HBL-100 cells; format: cell-based; conditions: Homo sapiens, 48 h
Source text: (§2) Cell cultures used in the work: adhesive cultures HBL-100 cells (cells of a normal mammary gland epithelium, immortalized by the SV40 virus and acquired tumorigenicity); MCF-7 breast cancer cells; PC-3 prostate adenocarcinoma cells; HCT-116 colorectal cancer cells; non-small cell lung cancer cells A549; human embryonic kidney cells HEK293; suspension cultures (NCI-H929 and RPMI8226 multiple myeloma cells), K562 chronic myeloid leukemia cells; THP-1 acute monocytic leukemia cells; and Jurkat acute T-cell leukemia cells. We also used several primary cultures of soft tissue sarcomas at 3–4passeges, kindly provided by T.I. Fetisov (The Ethics Committee of N.N. Blokhin NMRCO, protocol code 18-28-09095 and date of approval 28 September 2018).
(§3) Cells MCF-7, PC-3, A549, and HCT-116, and primary cultures of STSwere seeded in 96-well plates, 6 × 10^3 cells per well in 90 μL of culture medium. Suspension cultures were seeded at a concentration of 25 × 10^3 cells per well in 135 μL of medium. The test substances were dissolved in DMSO (Applichem, Council Bluffs, IA, USA) until a concentration of 1 × 10^−^2 M was obtained; for the subsequent dilution of the substances, a serum-free culture medium was used. The next day, for adhesive cultures, and on the same day, for suspension cultures, substances were added to the plates in a volume of 10 μL (adhesive cultures) and 15 μL (suspension cultures) per well at various concentrations; each concentration was added in 3–4 repetitions. The cells were cultured in the presence of substances for 48 h. Then, MTT reagent (PanEko, Moscow, Russia) was added to the wells at a concentration of 5 mg/mL in a volume of 20 μL per well. After 1.5–2 h, the medium with the reagent was removed, and the precipitate of the crystals of formazan was dissolved in 60 μL of DMSO. The optical density was determined using a Multiskan FC spectrophotometer (Thermo Scientific, Waltham, MA, USA) at a wavelength of 540 nm.
(§4) Based on the results of the experiments, a schedule was plotted of the dependence of the percentage of surviving cells (from control) on the concentration of the compound, and the sought concentration IC50 was calculated. The experiments were carried out in 3–4 times.

HCT-116 = test: MTT cytotoxicity, HCT-116 colorectal cancer cells; format: cell-based, human; conditions: 48 h; for IC50: Homo sapiens, HCT-116, adhesive tumor culture
Source text: as §2
(§5) Modifications of cell lines: K562/i-S9 is a clone obtained after transfection of K562 cells with the ABCB1 (MDR1) gene-encoding P-glycoprotein [36]. Cells HBL-100/Dox and K562/i-S9_Dox are cells obtained by long-term selection with increasing concentrations of doxorubicin (Sigma-Aldrich, St. Louis, MO, USA) from HBL-100 and K562/i-S9 cells, respectively. MCF-7, A594 cells, and primary cultures of soft tissue sarcomas were cultured in DMEM medium (PanEko, Russia), PC-3 and HCT-116 cells and all suspension cultures in RPMI1640 medium (PanEko, Russia) supplemented with 10% fetal bovine serum (GE Healthcare LifeSciences, USA), and gentamicin at a concentration of 40 μg/mL at 37 °C and 5% CO2.
as §3, §4

Jurkat = test: MTT cytotoxicity, Jurkat acute T-cell leukemia cells; format: cell-based; conditions: Homo sapiens, suspension culture, 48 h
Source text: as §2, §5, §3, §4

[1] = test system: ERK 1/2 (pThr185/pTyr187); test: MILLIPLEX MAP 9-Plex, ERK 1/2 active form in A431 lysates; format: cell-based, human; conditions: 10 μM; for ERK ½ (pThr185/pTyr187) fluorescence intensity: A431 cell lysates, 1 h, M ± mx, control 839.7 ± 248.9; for activation of signaling pathway ERK/MAP kinase 1/2 (pThr185/pTyr187), in words: A431 cells
Source text: We used the MILLIPLEX MAP Multi-Pathway Magnetic Bead 9-Plex-Cell Signaling Multiplex Assay, which allows the simultaneous detection of nine phosphorylated proteins that are markers of the main intracellular signaling pathways (phosphorylation site is indicated in parentheses), a universal transcription factor that controls the expression of immune response genes; apoptosis and cell cycle NFκB (pS536); cAMP-dependent transcription factor (CREB (pS133); mitogen-activated kinase p38 (pT180/pY182); stress-activated protein kinase JNK (pT183/pY185); ribosomal […]; transcription factors STAT3 (pS727) and STAT5A/B (pY694/699); protein kinase B (Akt) (pS473); and kinase regulated by extracellular signals ERK1/2 (pT185/pY187).
as §1
We used a MILLIPLEX MAP Multi-Pathway Magnetic Bead 9-Plex-Cell Signaling Multiplex Assay kit (Merck/Millipore), according to the manufacturer’s protocol. A431 cells were cultured in DMEM with 10% FBS in 24-well plates. Compounds were added to the subconfluent cells at a concentration of 10 μM in DMEM medium for 1 h. Each compound was added in 5 experimental repeats. Cell lysates were prepared with lysis buffer (Millipore) with protease inhibitors (Complete, Roche); the protein concentration in the lysates was determined by the Lowry method. In samples equalized in protein concentration, the active forms of kinase cascades were determined using a Bio-Plex 200 fluorescent analyzer (Bio-Rad).

| SMILES | IC50 (A431 cells) [µM] | IC50 (HBL-100) [µM] | IC50 (HCT-116) [µM] | IC50 (Jurkat) [µM] | ERK ½ (pThr185/pTyr187) fluorescence intensity [1] | activation of signaling pathway ERK/MAP kinase 1/2 (pThr185/pTyr187), in words [1] | IC50 value, HCT-116 (HCT-116; adhesive tumor culture) |
| --- | --- | --- | --- | --- | --- | --- | --- |
| C=C1C2=C(C(=O)N1OC)[C@@H](N1CCCC1)[C@@](C)(O)[C@H](CCCCC)O2 [Compound 1] | 3.7 | 6.2 ± 0.8 | 7.6 ± 0.9 | 1.5 ± 0.4 | 4650.1 ± 509.0 *↑ rel. units |  |  |
| C=C1C2=C(C(=O)N1OC)[C@@H](N(C)C)[C@@](C)(O)[C@H](CCCCC)O2 [Compound 2, (2S,3R,4R)-4-(dimethylamino)-3-hydroxy-6-methoxy-3-methyl-7-methylene-2-pentyl-3,4,6,7-tetrahydropyrano[2,3-c]pyrrol-5(2H)-one] | 1.9 | 4.9 ± 1 | 4.2 ± 0.2 | 1.1 ± 0.1 | 5074.6 ± 770.1 *↑ rel. units | maximum degree of activation |  |
| C=C1C2=C(C(=O)N1OC)[C@@H](N(CCCC)CCCC)[C@@](C)(O)[C@H](CCCCC)O2 [Compound 5, (2S,3R,4R)-4-(dibutylamino)-3-hydroxy-6-methoxy-3-methyl-7-methylene-2-pentyl-3,4,6,7-tetrahydropyrano[2,3-c]pyrrol-5(2H)-one] | > 50 |  | 12 ± 0.9 | 3.7 ± 0.2 | 1880.4 ± 81.7 *↑ rel. units | only slightly activated |  |
| C=C1C2=C(C(=O)N1OC)[C@@H](N(CC)CCO)[C@@](C)(O)[C@H](CCCCC)O2 [Compound 9, (2S,3R,4R)-4-[ethyl(2-hydroxyethyl)amino]-3-hydroxy-6-methoxy-3-methyl-7-methylene-2-pentyl-3,4,6,7-tetrahydropyrano[2,3-c]pyrrol-5(2H)-one] | 4.6 | 6.5 ± 0.8 | 3.9 ± 0.1 | 1.3 ± 0.4 | 3276.9 ± 700.0 *↑ rel. units |  |  |
| CCCCC[C@@H]1OC2=C(C(=O)N(OC)/C2=C\n2cnnc2)C(n2cnnc2)[C@@]1(C)O (some centres unmarked) [Compound 10] | > 50 |  |  | 94 ± 22.6 | 1864.9 ± 149.5 *↑ rel. units | only slightly activated | not active |

From PMC9030166, “Natural Phaeosphaeride A Derivatives Overcome Drug Resistance of Tumor Cells and Modulate Signaling Pathways” (Pharmaceuticals, 2022)
